The source of these data is article PMC9243000 (Cell Discovery, 2022).

Like-named read-outs stand apart in the source and are kept apart here. Positions of bridges follow the written chain, without caps; N, C: chain ends. Residues, ends and D or L forms follow the SMILES beside them. Chains are numbered I, II in the order given. No end group written: not given here. Some results are limits rather than exact numbers.

For data set [1], the system named is SARS-CoV-2 (HKU001a). The conditions noted are these: for 50% inhibitory concentration IC50: HKU001a, 18 h; for antiviral activity in the low salt condition: low salt (30 mM, PBS/5), plaque reduction assay. (Plaques are areas of infected cells; plaque reduction assays count them against a control.)
Data set [2] deals with fusion between 293T-Spike and Calu-3 cells. The data set is classed as cell-based.
Data set [3] relates to endosomal acidification in VeroE6 cells. In words: Endosomal acidification assay. The data set is classed as cell-based. The settings on record: 4H30 25 μg/mL, bafilomycin A1 50 nM, pH-sensitive dye. The method, then: Endosomal acidification was detected with a pH-sensitive dye (pHrodo green dextran, Invitrogen, Cat^# P35365) according to the manufacturer’s instructions as previously described but with slight modification. First, VeroE6 cells were treated with DMEM, 4H30 (25.0 μg/mL), or bafilomycin A1 (50.0 nM) at 4 °C for 15 min. Second, VeroE6 cells were added with 100 μg/mL of pH-sensitive dye and DAPI and then incubated at 4 °C for 15 min. Before taking images, cells were further incubated at 37 °C for 15 min and then cells were washed twice with PBS. Finally, PBS was added to cells and images were taken immediately with a confocal microscope (Carl Zeiss LSM 800, Germany).
Supplementary Fig. S7. 4H30 could inhibit endosomal acidification in VeroE6 cells. VeroE6 cells were treated with pH-sensitive dye (green in low pH endosomes) and the indicated inhibitor 4H30 (25 μg/mL), bafilomycin A1 (BA1, 50 nM) or DMEM. Nuclei were stained as blue. Cell only without treatment was the negative control (Neg). Representative live-cell images were taken by confocal microscope. Experiments were repeated with two independent biological samples. […]

The test system of data set [4] is spike-ACE2-mediated cell fusion in 293T cells. The data set is classed as cell-based. The settings on record: 4H30 40 μM, bafilomycin A1 50 nM, remdesivir 80 μM; 6 h post coculture.
The test system of data set [5] is SARS-CoV-2. The settings on record: cited from earlier work.
The subject of data set [6] is SARS-CoV-2 (B.1.617.2, Delta). In words: Post-exposure antiviral assay in hamsters, Delta. The data set is classed as in vivo. The conditions noted are these: for syncytia formation in hamster lungs: Delta, compared with mock-treated hamsters; for inhibition of viral replication in hamster lungs (PFU/lung) / lung inflammation: in vivo, hamster.
The conditions of data set [7]: mice; intranasal, three doses of 0.5 mg/kg within two days; compared with the PBS group; three mice in each group.
For data set [8], the system named is SARS-CoV-2 (B.1.1.63). Put plainly: Post-exposure antiviral assay in hamsters, B.1.1.63. The settings on record: hamster, in vivo.
The subject of data set [9] is SARS-CoV-2. In words: Viral attachment assay at 4 °C (RT-qPCR). The data set is classed as cell-based.
Data set [10] can be described thus: ELISA binding to heparan sulfate. The conditions noted are these: HS 300, 75 ng coated on ELISA plate; detection by anti-HBD2; compared with BSA; n = 4. (In general: ELISA stands for enzyme-linked immunosorbent assay.)
The test system of data set [11] is MERS-CoV. The conditions noted are these: 18 h.
For data set [12], the system named is SARS-CoV-2. In words: Viral release assay. The data set is classed as cell-based.
In data set [13] the test system is SARS-CoV-2 (B.1.1.63). Put plainly: Pre-exposure antiviral assay in hamsters. The data set is classed as in vivo. The conditions noted are these: compared with mock-treated hamsters.
In data set [14] the test system is SARS-CoV-2. In words: Viral RNA copies in VeroE6 cell lysate after pretreatment (RT-qPCR). The data set is classed as cell-based. The conditions noted are these: virus pretreated by 4H30 (25 μg/mL), DMEM-treated virus 50-fold, n = 4. A general note: Real-time PCR tracks product formation cycle by cycle.
The conditions of data set [15]: intranasal, three doses of 0.5 mg/kg within two days; 4 days post-inoculation.
Data set [16] has as its system SARS-CoV-2 B.1.1.63. The conditions noted are these: B.1.1.63, 18 h.
The test system of data set [17] is SARS-CoV-2. In words: Plaque assay after 10,000-fold dilution of treated virus. The data set is classed as cell-based.
Data set [18] deals with spike-ACE2 binding (Severe acute respiratory syndrome coronavirus 2, UniProt P0DTC2). Put plainly: ELISA of spike binding to ACE2. The settings on record: ACE2 (150 ng) coated on ELISA plate; n = 6.
Data set [19] can be described thus: ELISA binding to chondroitin sulfate. The conditions noted are these: CS 300, 75 ng coated on ELISA plate; detection by anti-HBD2; compared with BSA; n = 4.
A short description of data set [20]: Cytotoxicity MTT assay, VeroE6. The data set is classed as cell-based. The settings on record: VeroE6 cells, 24 h at 37 °C, DMEM with 1% FBS, n = 3, read-out: 50% toxicity concentration (TC50). The protocol: (§1) Cytotoxicity of peptides was determined by the detection of 50% cytotoxic concentration (CC50) using a tetrazolium-based colorimetric MTT assay. Briefly, cells were seeded in a 96-well cell culture plate at an initial density of 4 × 10^4 cells per well in DMEM supplemented with 10% FBS and incubated overnight. Cell culture media were removed and then DMEM supplemented with various concentrations of peptides and 1% FBS were added to each well. After 24 h incubation at 37 °C, MTT solution (5 mg/mL, 10 μL per well) was added to each well for incubation at 37 °C for 4 h. Then, 100 μL of 10% SDS in 0.01 M HCl was added to each well. After further incubation at room temperature with shaking overnight, the plates were read at OD570 using VictorTM X3 Multilabel Reader (PerkinElmer, USA). Cell culture wells without peptides were used as the experiment control and the medium only served as a blank control.

Data set [21] can be described thus: Cytotoxicity MTT assay, Calu-3. The data set is classed as cell-based. The conditions noted are these: human, Calu-3 cells, 24 h at 37 °C, DMEM with 1% FBS, n = 3, read-out: 50% toxicity concentration (TC50). The method, then:
as §1

Consider `CC[C@H](C)[C@H](NC(=O)[C@H](C)NC(=O)CN)C(=O)N[C@@H](CS)C(=O)N[C@@H](Cc1c[nH]cn1)C(=O)N1CCC[C@H]1C(=O)N[C@H](C(=O)N[C@@H](Cc1ccccc1)C(=O)N[C@@H](CS)C(=O)N1CCC[C@H]1C(=O)N[C@@H](CCCNC(=N)N)C(=O)N[C@@H](CCCNC(=N)N)C(=O)N[C@@H](Cc1ccc(O)cc1)C(=O)N[C@@H](CCCCN)C(=O)N[C@@H](CCC(N)=O)C(=O)N[C@H](C(=O)NCC(=O)N[C@H](C(=O)N[C@@H](CS)C(=O)NCC(=O)N[C@@H](CC(C)C)C(=O)N1CCC[C@H]1C(=O)NCC(=O)N[C@H](C(=O)N[C@@H](CCCCN)C(=O)N[C@@H](CS)C(=O)N[C@@H](CS)C(=O)N[C@@H](CCCCN)C(=O)N[C@@H](CCCCN)C(=O)N1CCC[C@H]1C(=O)O)[C@@H](C)O)[C@@H](C)O)[C@@H](C)CC)C(C)C` [H30] (H-GAICHPVFCPRRYKQIGTCGLPGTKCCKKP-OH; N-terminus and C-terminus assumed), for which, in data set [1], the “50% inhibitory concentration IC50” value is greater than 25 µg/mL and the “antiviral activity in the low salt condition” value is recorded as “more effective in the low salt condition”.
As for `CO/C1=C\C(C)=C\[C@@H](C)[C@@H](O)[C@@H](C)C/C(C)=C/C=C/[C@H](OC)[C@@H]([C@@H](C)[C@@H](O)[C@H](C)[C@@]2(O)C[C@@H](O)[C@H](C)[C@@H](C(C)C)O2)OC1=O` [bafilomycin A1], the “inhibition of cell-cell fusion, 293T-Spike + Calu-3” value (shortened to “inhibition of cell-cell fusion”) in data set [2] is “could not inhibit”. Moreover, in data set [2] (4H30 125 μg/mL, BA1 50 nM, 6-8 h post-coculture, non-fusion cell size ~10 μm), the “cell fusion size, 293T-Spike + Calu-3” value is reported as greater than 40 μm. In addition, the “inhibition of endosomal acidification in live cells” value in data set [3] is “could inhibit”. Further, the “inhibition of spike-ACE2-mediated cell fusion, 293T-Spike + 293T-ACE2” value (from here on “inhibition … 293T-Spike + 293T-ACE2”) in data set [4] is “inhibition”.
On to `CN(C)C(=O)COC(=O)Cc1ccc(OC(=O)c2ccc(NC(=N)N)cc2)cc1` [camostat], for which the “inhibition of cell-cell fusion” value in data set [2] is “could show the inhibition”. In addition, the “inhibition of SARS-CoV-2 in hamsters by camostat alone” value in data set [5] is “not significantly inhibited”.
`CCC(CC)COC(=O)[C@H](C)N[P@](=O)(OC[C@H]1O[C@@](C#N)(c2ccc3c(N)ncnn23)[C@H](O)[C@@H]1O)Oc1ccccc1` [remdesivir, reference compound]: in data set [4], the “inhibition … 293T-Spike + 293T-ACE2” value is “without inhibition”. In data set [6], the “syncytia formation in hamster lungs” value was “syncytia could be easily observed”, the “inhibition of viral replication in hamster lungs (PFU/lung)” value came to 33 fold and the lung inflammation entry is given as “could reduce lung inflammation”.
Regarding “I: GAICHPVFCPRRYKQIGTCGLPGTKCCKKPKK / II: GAICHPVFCPRRYKQIGTCGLPGTKCCKKPK / III: GAICHPVFCPRRYKQIGTCGLPGTKCCKKP / IV: GAICHPVFCPRRYKQIGTCGLPGTKCCKKP (amide I:31-IV:C, I:32-II:C, II:31-III:C; cysteines drawn unpaired) [4H30]”, the “inhibition of cell-cell fusion” value in [2] (4H30 125 μg/mL, bafilomycin A1 50 nM, camostat 100 μg/mL, 6-8 h post-coculture) is “could not inhibit”. Moreover, the “lung histopathology and body weight changes for 40 days” value in [7] was “no significant histopathological and consistent body weight change”. For the same molecule, the “inhibition of SARS-CoV-2 replication in lungs, post-exposure” value in data set [8] is reported as “significantly inhibit”. Also, the “SARS-CoV-2 attachment to A549 (ACE2–) and Calu-3 (ACE2+) cells” value in data set [9] (cells treated with 12.5 μg/mL, attachment at 4 °C, compared with BSA- or DMEM-treated cells) was “significantly increased”. The “SARS-CoV-2 attachment to VeroE6 cells” value in data set [9] (virus pre-mixed with 25 μg/mL for 1 hour, attachment at 4 °C for 1 hour, n = 4) was “increase”. For the same molecule, the “binding to heparan sulfate (HS)” value in data set [10] is listed as “effectively bind”. Further, the IC50 in data set [11] was determined as 1.01 µg/mL. Moreover, the “inhibition of viral release” value in data set [12] was “significantly inhibit viral release”. Further, the “syncytia in bronchial epithelium” value in data set [13] is recorded as “reduced”. The “viral RNA increase at 6 hpi compared with viral load at 1 hpi” value in data set [14] is “less than threefold”. The “pathological and body weight changes in hamsters” value in data set [15] is “did not cause significant pathological and body weight changes”. Also, the half-maximal inhibitory concentration (IC50) in data set [16] was 0.48 µg/mL. Also, the “inhibition of infection after dilution of treated virus” value in [17] is reported as “significantly inhibit”. In addition, the “effect on binding between the spike and ACE2” value in data set [18] is listed as “did not directly affect the binding”. In addition, the “binding to chondroitin sulfate (CS)” value in [19] is given as “effectively bind”. Further, the “inhibition of endosomal acidification in live cells” value in [3] is reported as “could inhibit”. The CC50 at 24 h in data set [20] was greater than 400 µg/mL. Also, the “inhibition … 293T-Spike + 293T-ACE2” value in data set [4] is “could inhibit the fusion”. For the same molecule, in data set [1], the “50% inhibitory concentration IC50” value was 0.59 µg/mL and the “antiviral activity in the low salt condition” value is on record as “significantly inhibited”. For the same molecule, the CC50 at 24 h in data set [21] is greater than 400 µg/mL. In [6], the “syncytia formation in hamster lungs” value is reported as “could reduce the syncytia formation”, the “inhibition of viral replication in hamster lungs (PFU/lung)” value is 9 fold and the lung inflammation result is given as “could reduce lung inflammation”.

A word on the IC50: it is the midpoint of a concentration-inhibition curve.
